Data set [1] can be described thus: Gross examination of cornea, iris, conjunctivae and pupil diameter for ocular irritation in the IOP study. The data set is classed as in vivo, Male New Zealand white rabbits. The note with it: rabbits, topical ocular dosing.
Excerpt: Prior to drug administration and at each IOP determination, the cornea, iris, and conjunctivae were grossly examined for signs of irritation. Pupil diameter was also examined but detailed measurements were not made.
The test system of data set [2] is intraocular pressure (IOP). Briefly: Intraocular pressure (IOP) lowering in conscious normotensive rabbits after topical dosing, applanation tonometer. The data set is classed as in vivo, Male New Zealand white rabbits. The note with it: 0.5% Timolol alone (plus 50 µl vehicle 1), 50 µl topical to left eye, mean ± SEM; statistically significant vs placebo; concentration giving maximum IOP reduction with timolol alone. The protocol:
Food and water were allowed ad libitum. The rabbits were maintained on a light cycle of 12 h darkness (7 PM to 7 AM) followed by 12 h of light. Animals were conditioned to their handlers and the laboratory setting and IOP measurements for at least one 4 h period before being used to study drug effects.
Rabbits were restrained in a cloth sack approximately 2 min prior to IOP determinations. The left lower eyelid was retracted forming a pouch and 1 drop of the local anesthetic proparacaine (0.05% w/v) was irrigated over the cornea. The eyelid was then held closed over the eye about 1 min. IOP was usually monitored 1 h before dosing, at zero time (immediately prior to dosing), and hourly for the next 4 h. Only rabbits with IOP's of 18-23 mmHg and showing no sign of ocular irritation were used in drug studies.
IOP, in mmHg, was determined in triplicate with a McKag-Marg applanation tonometer and the average reading was recorded. The tonometer had previously been calibrated against direct manometric determination of IOP in living eyes of barbiturate-anesthetized rabbits. Internal calibration signals of the McKay-Marg unit were checked after every eight readings or less. […]
The data (mean I SEM) were analyzed using analysis of variance and Dunnett's or Duncan's comparisons and are expressed as peak changes in IOP. […]

For `CC(C)(C)NC[C@H](O)COc1nsnc1N1CCOCC1` [Timolol, 1-[(1,1-dimethylethyl)amino]-3-[(4-morpholinyl-1,2,5-thiadiazol-3-yl)-oxy]-2-propanol], the “signs of acute ocular irritation” value in data set [1] (all concentrations tested) is “None”. Besides, the Pupillary diameters entry in data set [1] (examined, detailed measurements not made) was “not affected”. In addition, the “Peak Change in IOP” value in data set [2] is on record as -3.0±0.4^(1) mmHg.

Values taken from patent publication EP0227818B1, “ANTIGLAUCOMA COMPOSITIONS” (SCHERING CORPORATION, priority 1985, dated 1987).
